Data as given in patent US11078496B2, “System for F-box hormone receptor regulated protein expression in mammalian cells” (ICAHN SCHOOL OF MEDICINE AT MOUNT SINAI, priority 2016, dated 2021).

Tested on: human ESCs
Test: Proliferation of H9 ESCs under coronatine (growth curves)
Type: cell-based
Details: H9 cells expressing pJAZ NLS-GFP-OsJAZ^33, 50 μM coronatine vs 0.1% DMSO, counted daily
From the text: FIG. 10A is a sequence alignment of O. sativa coronatine-degradable proteins (Tan et al., “Mechanism of Auxin Perception by the TIR1 Ubiquitin Ligase,” Nature 446:640-645 (2007), which is hereby incorporated by reference in its entirety) OsJAZ1 (NP_001064513.1; SEQ ID NO: 4), OsJAZ2 (NP_001049167.1; SEQ ID NO: 5), OsJAZ7 (NP_001063273.1; SEQ ID NO: 6), OsJAZ3 (NP_001049166.1; SEQ ID NO: 7), and A. thaliana AtJAZ1 (NP_564075; SEQ ID NO: 8). Degron sequences used in this study are highlighted and degron names indicated on the right. […] GFP level was analyzed by flow cytometry and % degradation was calculated as described in the Methods. […] FIG. 10F show GFP fluorescence histograms derived from flow cytometric analysis of HEK-293T cells infected with the indicated pJAZ versions, selected and treated with either 0.1% DMSO (“Con”) or 50 μM coronatine (“Cor”). Parental HEK-293T cells were analyzed as a control for background autofluorescence. […] FIG. 10H show the relative median fluorescence of HEK-293T cells infected with pJAZ 7 harboring either GFP-OsJAZ^33 or NLS-GFP-OsJAZ^33. Cells were selected and treated with increasing concentrations of coronatine (“Cor”) and analyzed after 24 hours (left panel), or with 50 μM coronatine for the indicated time periods (right panel). GFP fluorescence was analyzed by flow cytometry. […] Cells were counted daily and growth curves are plotted in FIG. 10K. […]

In the case of `CC[C@H]1C=C(C(=O)N[C@@]2(C(=O)O)C[C@@H]2CC)[C@H]2CCC(=O)[C@H]2C1` [coronatine, Coronatine], the effect on proliferation is reported as “does not affect proliferation”.
